Measurements: US20230167075A1, “INTERLEUKIN INHIBITORS” (UNIVERSITY OF GREENWICH, priority 2020, published 2023)

What was measured:
Format in all cases: cell-based, human
Interleukin (IL)-1 beta = experiment: Inhibition of secreted Interleukin-1 beta in LPS-stimulated PBMCs (cytometric bead array); details: PBMCs stimulated with LPS, 24 hours
Protocol: (§1) The compounds of formulae (I), (IA) and (IB) may be investigated for inhibition of pro-inflammatory cytokines Interleukin (IL)-1p, 2, 4, 6, 8, 13 and 17A, in peripheral blood mononuclear cells (PBMCs) isolated from fresh human buffy coats by centrifugation on Lymphoprep™ (Stemcell Technologies). All human cells are grown in cell culture medium RPMI-1640 supplemented with 1% penicillin/streptomycin and 5% heat inactivated fetal bovine serum.
(§2) PBMCs stimulated with LPS (Salmonella enterica serotype typhimurium) are incubated for 24 hours containing the compounds under investigation, reconstituted in dimethyl sulfoxide (DMSO). The secreted levels of Interleukin-1(3 is measured in the cell culture supernatant using a cytometric bead array and the cell viability is quantified using Trypan blue.

interleukin (IL)-6 = experiment: Inhibition of Interleukin-6 in PBMCs
Protocol: as §1

interleukin (IL)-8 = experiment: Inhibition of Interleukin-8 in PBMCs
Protocol: as §1

interleukin (IL)-17A = experiment: Inhibition of secreted Interleukin-17A in PMA/ionomycin-stimulated PBMCs (cytometric bead array); details: PBMCs stimulated with PMA/ionomycin, 24 hours
Protocol: as §1
as §2, with “PMA/ionomycin” for “LPS (Salmonella enterica serotype typhimurium)”, “DMSO.” for “dimethyl sulfoxide (DMSO).”, “Interleukin-17A are” for “Interleukin-1(3 is”

IL-2 = experiment: Inhibition of IL-2 release, stimulated CD4-positive T cells
Protocol: (§3) The compounds of formulae (I), (IA) and (IB) may be investigated for inhibition of pro-inflammatory cytokines Interleukin-2, 4 and 13 in human CD4-positive T cells isolated from fresh isolated PBMCS using a CD4-positive T cell isolation kit.
(§4) CD4-positive T cells stimulated with beads coated with antibodies against CD2, CD3 and CD28 are incubated for 48 hours containing the compounds under investigation, reconstituted in DMSO. The secreted levels of Interleukin-2, 4 and 13 are measured in the cell culture supernatant using a cytometric bead array and the cell viability is measured using an MTT (3-(4,5-dimethylthiazol-2-yl)-2,5-diphenyltetrazolium bromide) assay.
(§5) Secreted IL-4 levels may be measured using electrochemiluminescence (MSD kits, Meso Scale Discovery), while secreted IL-2 levels may be measured using proximity homogenous time-resolved fluorescence (HTRF) and the amount of living cells may be measured by addition of resazurin (PrestoBlue®).

IL-4 = experiment: Inhibition of IL-4 release, stimulated CD4-positive T cells
Protocol: as §3, §4, §5

[1] = Inhibition of cell viability in the IL-2/IL-4 release assays; details: human; read-out: Max Effect, Inhibition of cell viability
Protocol: as §4, §5

CD4-positive T cells = experiment: as above
Protocol: as §4, §5

SMILES: Nc1nnc(C(c2ccccc2)c2ccccc2)c(N)n1 [3,5-Diamino-6-(diphenylmethyl)-1,2,4-triazine]
- inhibition of Interleukin IL-1 beta (Interleukin (IL)-1 beta): moderate inhibition
- inhibition of Interleukin IL-6 (interleukin (IL)-6): moderate inhibition
- inhibition of Interleukin IL-8 (interleukin (IL)-8): high inhibition
- inhibition of Interleukin IL-17A (interleukin (IL)-17A): high inhibition
- level of inhibition of IL-2 (in words) (IL-2): good level of inhibition
- level of inhibition of IL-4 (in words) (IL-4): good level of inhibition
- cytotoxicity at 48 h [1]: 28%
- inhibition of cell viability (in words) (CD4-positive T cells): without significant inhibition

SMILES: Nc1nnc(-c2sc(Cl)c(Cl)c2Cl)c(N)n1 [3,5-diamino-6-[2-(3,4,5-trichlorothienyl)]-1,2,4-triazine]
- inhibition of Interleukin IL-1 beta (Interleukin (IL)-1 beta): inhibitory effect
- inhibition of Interleukin IL-6 (interleukin (IL)-6): inhibitory effect
- inhibition of Interleukin IL-8 (interleukin (IL)-8): inhibitory effect
- inhibition of Interleukin IL-17A (interleukin (IL)-17A): inhibitory effect
